Patent US9861625B2, “Methods and compositions for treating cancer through inhibition of PI3K” (Duke University, priority 2014, dated 2018)

Columns and labels:
[1] = system: nine different cells lines; experiment: IPA-3 as a single agent in nine cell lines; format: cell-based
Description: The 3-(4,5-dimethylthiazol-2-yl)-2,5-diphenyltetrazolium bromide (MTT) cell viability assay was used to determine cell viability in response to drug treatment. Five replicates per concentration tested were carried out in serial dilutions with a total of ten concentrations with a 50% reduction in drug concentration per dilution for each plate. A total of 15 μl of MTT reagent was added to each drug-treated well and incubated for three hours in 37° C. Detergent was added to each drug-treated well and incubated overnight at room temperature without exposure to light. Absorbance was measured at 570 nm using a plate reader from Tecan Group. The IC50 concentration was determined using the publicly available ED50 plus v1.0 software program.
Small-molecule inhibition of PAK1 with IPA-3 achieved consistent results. PAK1 inhibition with IPA-3 was tested in nine different cells lines, both individually and in combination with BEZ235.

[2] = system: Ly8 cells and normal human B cells (tonsil lymphocytes); experiment: Toxicity in Ly8 cells compared to normal B cells (alamar blue); format: cell-based; conditions: alone and in combination; 36 hours
Description: BEZ235 was tested in combination with the PAK1 inhibitor IPA-3 using Calcusyn software by applying the Chou-Talalay method. BJAB, HBL1, HBL2, HT, Ly8, and Riva cells were tested, as were normal tonsil lymphocytes. Ly8 and tonsillar lymphocytes were cultured in 96-well plates (approximately 500,000 cells/ml) for 36 hours in Iscove's modified Dulbecco's medium (IMDM) with 20% human AB serum. Viability was assessed with alamar blue dye and normalized to the lowest concentration of BEZ235 in each group.
Finally, BEZ235 and IPA-3 were administered separately and concurrently to normal human B cells to ascertain a therapeutic window between normal and malignant cells.

Oc1ccc2ccccc2c1SSc1c(O)ccc2ccccc12 [IPA-3]
cell death at 10 μmol/L, upper end of the range ([1]; 10 μmol/L): no cell death
IC50 ([1]; nine cell lines, read-out: observed IC50 values, lower end of range): ≥ 697 nM
toxicity in Ly8 cells as compared to normal B cells [2]: selective toxicity
